A short description of data set [1]: In vivo biological safety evaluation. Also on record: species or system BALB/c nude mice. How it is done:
Nude mouse organ and tumor tissues fixed with neutral formalin solution were paraffin-embedded according to the conventional processing method. Sections were cut to a thickness of approximately 5 μm, placed on glass slides and dewaxed in an oven at 60 °C, stained for H&E and immunohistochemistry and finally visualized with the Cytation 5 imaging system.
For this assay, 130 SPF-grade BALB/c mice (female, 4–6 weeks old, 18–20 g) were obtained from Chang Zhou Cavens Laboratory Animal Ltd. (Changzhou, China). The in vivo activity experiments were commissioned by Nanjing OG Pharmaceuticals, Co., Ltd. (Nanjing, China) All mice were housed in plastic cages, fed, and watered under standard conditions and air filtration (22 ± 2 °C; 12 h light/dark cycles). Under aseptic conditions, human oral cancer Cal27 cells were inoculated subcutaneously in the right axilla of BALB/c nude mice. When the tumors had grown to about 85 mm^3, 24 […] mice with good growth status and good homogeneity of tumor size were selected and randomly divided into the following four groups of six mice each: (1) the model group; (2) the low-dose group; (3) the high-dose group; and (4) the positive drug group. The drug dose in the low-dose group was 10 mg/kg, which was injected intraperitoneally once every other day, for the duration of 21 days of administration; the drug dose in the high-dose group was 20 mg/kg, which was injected intraperitoneally once every other day, for the duration of 21 days of administration; and the drug dose in the cisplatin group was 2 mg/kg, which was injected intraperitoneally once every other day, for the duration of 21 days of administration. Normal tissues of the heart, liver, spleen, lung and kidney and half of the tumor tissues were fixed with 4% formalin solution and embedded in paraffin for histological analysis; the other half of the tumor tissues were preserved in liquid nitrogen, and the supernatant was extracted after milling the tissues and detected by Western blot.

A further data set relates to NCI-H460. The data set is described as follows: MTT antiproliferative assay, NCI-H460. To be noted: Homo sapiens, NCI-H460, 48 h, mean ± SD. Format: cell-based, human.
Data set [2] deals with Cal27 cells. The data set is described as follows: MTT cell survival with autophagy inhibitor CQ. In kind it is cell-based, human. Conditions: Cal27, 20 μM CQ and different concentrations of 7be. How it is done:
Meanwhile, to further confirm that compound 7be could induce autophagic death in Cal27 cells, we used a classical autophagy inhibitor, chloroquine (CQ), to evaluate the role of autophagy in compound 7be-mix-induced cell death.
Human oral cancer Cal27 cells were seeded in 96-well plates and incubated overnight in 180 μL of medium containing 10% Fetal Bovine Serum (Gibco, San Francisco, CA, USA). On the following day, compounds at final concentrations of 2.5, 5, 10 and 20 μM were added to each well and incubated for 48 h. Then, 10 μL of 5 mg/mL MTT solution was added to each well and incubated at 37 °C for 4 h. After 4 h of incubation at 37 °C, the MTT-containing medium was removed and DMSO was added to each well and the absorbance at 570 nm and 630 nm was measured using a microplate reader (CYTATION 3, Burton, Westwood, NJ, USA). Survival/% = (mean OD of experimental group/mean OD of control group) × 100%. Each test was repeated at least three times.

Data set [3] relates to Cal27 cells. The data set is described as follows: Cell cycle analysis by flow cytometry. Format: cell-based, human. To be noted: Cal27, 4 μM, 24 h. How it is done: Cal27 cells were treated with compound 7be for 24 h. Next, Cal27 cells were collected and suspended in ice ethanol at 4 °C for at least 24 h. Subsequently, Cal27 cells were incubated in RNase A and PI staining solution at 37 °C, protected from light, for 0.5 h. Finally, cells were detected by flow cytometry.

“Also recorded” adds a separate entry of the source.

On to `Cc1cc(C)c2c(n1)S(=O)(=O)c1c-2nc(NCCN2CCCCC2)c2ccccc12` [7be, 7,9-Dimethyl-5-((2-(piperidin-1-yl)ethyl)amino) pyrido[3′,2′:4,5]thieno[3,2-c]isoquinoline 11,11-dioxide], for which the “body weight of mice during treatment” value in data set [1] (10 or 20 mg/kg i.p., 21 days) is recorded as “no significant decrease in body weight; also recorded: no considerable weight loss”. Moreover, in data set [1] (end of treatment), the “organ weight of mice” value was “no significant difference”. Also, the “H&E staining of major organs” value in data set [1] (heart, liver, spleen, lung, kidney) was “no lesions, degenerations or histopathological abnormalities”. This compound also showed an IC50 with NCI-H460 of 2920 ± 560 nM. The “cell survival rate of combined treatment with 20 μM CQ” value with Cal27 cells [2] is “higher than that of the group treated with compound 7be alone”. Further, the “cells in S” value with Cal27 cells [3] came to 54.06%.

For the origin of these results see article PMC11858653, “Design, Synthesis and Bioactive Evaluation of Topo I/c-MYC Dual Inhibitors to Inhibit Oral Cancer via Regulating the PI3K/AKT/NF-κB Signaling Pathway” (Molecules, 2025).
